Drawing on patent US20240246964A1 (Arbutus Biopharma Corporation, priority 2021, published 2024), this text covers EC50 and IC50 for 15 compounds.

One assay addresses human PD-L1 (Homo sapiens (Human), UniProt Q9NZQ7). As to the kind of experiment: T cell activation luciferase reporter cell culture system (T Cell Activation Assay). It counts as cell-based. The conditions noted are these: luciferase reporter assay; PD-L1 aAPC/CHO-K1 cells with PD-1 effector Jurkat T cells.
Assay [1] deals with PD-L1 His protein / PD-1 Fc protein (Homo sapiens (Human), UniProt Q9NZQ7). As to the kind of experiment: HTRF Assay (PD-1/PD-L1 interaction). The conditions noted are these: PD-L1 His 6 nM, PD-1 Fc 6 nM. It counts as binding. (In general: In TR-FRET formats the signal depends on donor and acceptor labels being close together.)
Chain of PD-L1 His protein / PD-1 Fc protein (Q9NZQ7 19-238): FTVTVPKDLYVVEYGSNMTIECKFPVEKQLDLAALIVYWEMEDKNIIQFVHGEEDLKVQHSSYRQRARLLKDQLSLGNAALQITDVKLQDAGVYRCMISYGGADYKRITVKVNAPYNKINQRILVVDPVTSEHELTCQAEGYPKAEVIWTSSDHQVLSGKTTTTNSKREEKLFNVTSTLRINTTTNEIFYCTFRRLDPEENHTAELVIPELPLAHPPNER

Chain of human PD-L1 (Q9NZQ7 19-290): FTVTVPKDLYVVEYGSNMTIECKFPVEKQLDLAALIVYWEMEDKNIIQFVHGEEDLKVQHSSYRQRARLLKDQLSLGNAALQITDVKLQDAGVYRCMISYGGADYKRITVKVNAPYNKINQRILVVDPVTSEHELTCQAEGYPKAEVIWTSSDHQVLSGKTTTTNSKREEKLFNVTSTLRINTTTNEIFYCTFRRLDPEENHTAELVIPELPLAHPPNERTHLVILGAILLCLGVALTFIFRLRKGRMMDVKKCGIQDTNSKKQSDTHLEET

In general, EC50 refers to the concentration that produces a half-maximal response. As a reminder, the IC50 is the concentration needed to halve the response being measured. Read a low IC50 as higher potency. Compound `COc1nc(-c2cccc(-c3ccnc(-c4cc(OC)c5nc(CNC6CC7(COC7)C6)cn5c4)c3Cl)c2Cl)ccc1CNC[C@@H]1CCC(=O)N1` [Example 321, (S)-5-((((6-(3-(2-(2-(((2-Oxaspiro[3.3]heptan-6-yl)amino)methyl)-8-methoxyimidazo[1,2-a]pyridin-6-yl)-3-chloropyridin-4-yl)-2-chlorophenyl)-2-methoxypyridin-3-yl)methyl)amino)methyl)pyrrolidin-2-one] had an EC50 on human PD-L1 of 64.7 nM. In assay [1], this compound displayed an IC50 of 0.847 nM.

With `COc1cc(-c2nccc(-c3cccc(-c4ccc(CN5CCC(NC(C)=O)CC5)c(OC)n4)c3Cl)c2Cl)ccc1CN1CCC(NC(C)=O)CC1` [Example 322, N-(1-((6-(3-(2-(4-((4-Acetamidopiperidin-1-yl)methyl)-3-methoxyphenyl)-3-chloropyridin-4-yl)-2-chlorophenyl)-2-methoxypyridin-3-yl)methyl)piperidin-4-yl)acetamide], the midpoint of the response on human PD-L1, the EC50, lay at 72.9 nM. Moreover, the IC50 in assay [1] is 23.1 nM.

For `COc1cc(-c2nccc(-c3cccc(-c4ccc(CNC5CCN(C(C)=O)CC5)c(OC)n4)c3Cl)c2Cl)ccc1CN1CCC(NC(C)=O)CC1` [Example 325, N-(1-(4-(4-(3-(5-(((1-Acetylpiperidin-4-yl)amino)methyl)-6-methoxypyridin-2-yl)-2-chlorophenyl)-3-chloropyridin-2-yl)-2-methoxybenzyl)piperidin-4-yl)acetamide], a half-maximal response on human PD-L1 (EC50) required 39.5 nM. In assay [1], this compound yielded an IC50 of 2.76 nM.

Compound `COc1cc(-c2nccc(-c3cccc(-c4ccc(CNC5CCN(C(C)C)CC5)c(OC)n4)c3Cl)c2Cl)ccc1CNC1CCN(C(C)C)CC1` [Example 326, N-((6-(2-Chloro-3-(3-chloro-2-(4-(((1-isopropylpiperidin-4-yl)amino)methyl)-3-methoxyphenyl)pyridin-4-yl)phenyl)-2-methoxypyridin-3-yl)methyl)-1-isopropylpiperidin-4-amine] gave an EC50 on human PD-L1 of 43 nM. Further, the IC50 in assay [1] was 4.23 nM.

As to `COc1cc(-c2nccc(-c3cccc(-c4ccc(CNC5CCC(F)(F)CC5)c(OC)n4)c3Cl)c2Cl)ccc1CNC1CCC(F)(F)CC1` [Example 327, N-((6-(2-Chloro-3-(3-chloro-2-(4-(((4,4-difluorocyclohexyl)amino)methyl)-3-methoxyphenyl)pyridin-4-yl)phenyl)-2-methoxypyridin-3-yl)methyl)-4,4-difluorocyclohexan-1-amine], the EC50 at human PD-L1 worked out at 178 nM. In assay [1], this compound had an IC50 of 1.7 nM.

Consider `COc1cc(-c2nccc(-c3cccc(-c4ccc(CNC5CCN(CCO)CC5)c(OC)n4)c3Cl)c2Cl)ccc1CNC1CCN(CCO)CC1` [Example 328, 2-(4-(((6-(2-Chloro-3-(3-chloro-2-(4-(((1-(2-hydroxyethyl)piperidin-4-yl)amino)methyl)-3-methoxyphenyl)pyridin-4-yl)phenyl)-2-methoxypyridin-3-yl)methyl)amino)piperidin-1-yl)ethan-1-ol], for which, at human PD-L1, the EC50 turned out to be 28.1 nM. This compound also gave an IC50 in assay [1] of 1.52 nM.

Regarding `CCC(=O)N1CCC(NCc2ccc(-c3cccc(-c4ccnc(-c5cc(F)c(CNC6CCN(C(=O)CC)CC6)c(OC)c5)c4Cl)c3Cl)nc2OC)CC1` [Example 331, 1-(4-(((6-(2-Chloro-3-(3-chloro-2-(3-fluoro-5-methoxy-4-(((1-propionylpiperidin-4-yl)amino)methyl)phenyl)pyridin-4-yl)phenyl)-2-methoxypyridin-3-yl)methyl)amino)piperidin-1-yl)propan-1-one], the EC50 at human PD-L1 amounted to 17 nM. Further, in assay [1], the IC50 came out at 23.6 nM.

As for `COc1cc(-c2nccc(-c3cccc(-c4ccc(CN5CC6(CNC(=O)C6)C5)c(OC)n4)c3Cl)c2Cl)ccc1CNC1CCN(C(C)=O)CC1` [Example 332, 2-((6-(3-(2-(4-(((1-acetylpiperidin-4-yl)amino)methyl)-3-methoxyphenyl)-3-chloropyridin-4-yl)-2-chlorophenyl)-2-methoxypyridin-3-yl)methyl)-2,6-diazaspiro[3.4]octan-7-one], the EC50 at human PD-L1 turned out to be 12.4 nM. In assay [1], 1.8 nM corresponded to half-maximal inhibition (IC50).

On human PD-L1, `COc1cc(-c2nccc(-c3cccc(-c4ccc(CNC5CCN(C(C)=O)CC5)c(OC)n4)c3Cl)c2F)ccc1CNC1CCN(C(C)=O)CC1` [Example 337, 1-(4-(((6-(3-(2-(4-(((1-Acetylpiperidin-4-yl)amino)methyl)-3-methoxyphenyl)-3-fluoropyridin-4-yl)-2-chlorophenyl)-2-methoxypyridin-3-yl)methyl)amino)piperidin-1-yl)ethan-1-one] registered an EC50 of 62 nM. The compound also displayed an IC50 in assay [1] of 0.3 nM.

On to `COc1cc(-c2nccc(-c3cccc(-c4ccc(CNC5CCN(C(C)=O)CC5)c(OC)n4)c3Cl)c2Cl)ccc1CN[C@@H]1COC(=O)C1` [Example 338, (S)-4-((4-(4-(3-(5-(((1-Acetylpiperidin-4-yl)amino)methyl)-6-methoxypyridin-2-yl)-2-chlorophenyl)-3-chloropyridin-2-yl)-2-methoxybenzyl)amino)dihydrofuran-2(3H)-one], for which, at human PD-L1, a half-maximal effect (EC50) was put at 96.3 nM. Half-maximal inhibition in assay [1] (IC50) was put at 0.17 nM.

On to `COC(=O)C[C@@H](CO)NCc1ccc(-c2nccc(-c3cccc(-c4ccc(CNC5CCN(C(C)=O)CC5)c(OC)n4)c3Cl)c2Cl)cc1OC` [Example 339, Methyl (S)-3-((4-(4-(3-(5-(((1-acetylpiperidin-4-yl)amino)methyl)-6-methoxypyridin-2-yl)-2-chlorophenyl)-3-chloropyridin-2-yl)-2-methoxybenzyl)amino)-4-hydroxybutanoate], for which the midpoint of the response at human PD-L1, the EC50, lay at 97.6 nM. This compound displayed a 50% inhibitory concentration (IC50) in assay [1] of 0.12 nM.

In turn, `COc1cc(-c2nccc(-c3cccc(-c4ccc(CNC5CCN(C(C)=O)CC5)c(OC)n4)c3Cl)c2Cl)ccc1CN[C@H]1CCOC1=O` [Example 340, (S)-3-((4-(4-(3-(5-(((1-Acetylpiperidin-4-yl)amino)methyl)-6-methoxypyridin-2-yl)-2-chlorophenyl)-3-chloropyridin-2-yl)-2-methoxybenzyl)amino)dihydrofuran-2(3H)-one] displayed an EC50 on human PD-L1 of 523 nM. The compound also came in with an IC50 in assay [1] of 0.1 nM.

Compound `COc1cc(-c2nccc(-c3cccc(-c4ccc(CN5CCC(NC(C)=O)CC5)c(OC)n4)c3Cl)c2Cl)ccc1CNC1CCN(C(C)=O)CC1` [Example 341, N-(1-((6-(3-(2-(4-(((1-acetylpiperidin-4-yl)amino)methyl)-3-methoxyphenyl)-3-chloropyridin-4-yl)-2-chlorophenyl)-2-methoxypyridin-3-yl)methyl)piperidin-4-yl)acetamide] showed an EC50 at human PD-L1 of 22.6 nM. Besides, in assay [1], half-maximal inhibition (IC50) required 1.14 nM.

Compound `COc1cc(-c2nccc(-c3cccc(-c4ccc(CNC5CCN(C(C)=O)CC5)c(OC)n4)c3Cl)c2Cl)ccc1CN[C@H](CO)CC(=O)O` [Example 342, (S)-3-((4-(4-(3-(5-(((1-Acetylpiperidin-4-yl)amino)methyl)-6-methoxypyridin-2-yl)-2-chlorophenyl)-3-chloropyridin-2-yl)-2-methoxybenzyl)amino)-4-hydroxybutanoic acid] came in with an EC50 at human PD-L1 of 339 nM. Further, half-maximal inhibition in assay [1] (IC50) was put at 0.08 nM.

On to `COc1cc(-c2nccc(-c3cccc(-c4ccc(CNC5CCN(C(C)=O)CC5)c(OC)n4)c3Cl)c2Cl)ccc1CN[C@@H](CCO)C(=O)O` [Example 343, (4-(4-(3-(5-(((1-Acetylpiperidin-4-yl)amino)methyl)-6-methoxypyridin-2-yl)-2-chlorophenyl)-3-chloropyridin-2-yl)-2-methoxybenzyl)-L-homoserine], for which the response on human PD-L1 was half-maximal at 248 nM (EC50). The same compound displayed an IC50 in assay [1] of 0.09 nM.
